Data: patent US5663152A, “Potentiators for aminoglycosides” (Asahi Kasei Kogyo Kabushiki Kaisha, priority 1995, dated 1997)
Values after ≈ are worked out from the molar mass of the structure shown. Where two headings read alike, the source gives them in different places.

What was measured:
[1] = system: Escherichia coli (ATCC 10536); experiment: Minimum inhibitory concentration by broth dilution, Escherichia coli (ATCC 10536); assay type: cell-based; settings: for MIC: Escherichia coli, ATCC10536, 48 h, read-out: MIC Alone
From the text: (§1) Microorganism strains were supplied by the ATCC. Staphylococcus aureus is a clinically significant member of the gram-positive group of bacterial pathogens. It gives rise to serious infections, and may produce bacteremia, endocarditis, and meningitis. Methicillin-resistant strains of Staphylococcus aureus were chosen for evaluation because they present a significant medical problem, in view of the fact that methicillin is the drug of choice for treatment of S. aureus infection in the common penicillin-resistant strains.
(§2) Escherichia coli is also a gram-negative pathogenic bacillus which may cause enteritis, peritonitis, or cystitis.
(§3) The MICs were determined by the broth dilution method (Kubo et al. J. Agric. Food Chem. 1992, 40, 245-248). Test compounds were dissolved in Di-Methyl Formamide("DMF") to make stock solution at concentrations of 80, 40, 20, or 10 mg/ml depending upon the potency and solubility. An aliquot of 0.01 ml of the stock solution was added to a tube containing 0.99 ml of media to get the initial concentration of testing solution. Serial two-fold dilutions were made by mixing 0.5 ml of testing solution with 0.5 ml of blank medium. A 0.5 ml aliquot of diluted inoculum containing an appropriate concentration of the test microorganism (1:100 dilution of the initial inoculum) was then added into each tube containing 0.5 ml serial dilutions of the test compound. After incubating for 2 days at 37° C., the tube was evaluated for visible growth. The MIC was determined as the lowest concentration of a compound which prevented visible microorganism growth. A culture growth control without compound (solvent only) and several culture sensitive reference agents were used as positive controls. The assays were performed in duplicate.

[2] = system: Escherichia coli (ATCC 10536); experiment: Minimum biocidal concentration, Escherichia coli (ATCC 10536); assay type: cell-based; settings: for MBC: Escherichia coli
From the text: as §1, §2
(§4) After determining the MIC, 0.1 ml of a ten-fold dilution from each tube showing no turbidity was plated onto chemical free nutrient agar plates. After 24 hours of incubation, the colonies were counted. The MBC was the lowest concentration of antibacterial compound that decreased the initial inoculum population by >99.9 percent. The initial population for E. coli. was 1×10^7 -6×10^7 colony forming units (CFU) per ml; for P. aeruginosa was 1×10^6 -5×10^6 CFU per ml; and for methicillin-resistant Staphylococcus aureus (MRSA) was 2×10^6 -7×10^6 CFU per ml.

[3] = system: Pseudomonas aeruginosa (ATCC 10145); experiment: Minimum inhibitory concentration by broth dilution, Pseudomonas aeruginosa (ATCC 10145); assay type: cell-based; settings: for MIC: Pseudomonas aeruginosa, ATCC10145, 48 h, read-out: MIC Alone
From the text: as §1
(§5) Pseudomonas aeruginosa was also chosen for evaluation. P. aerugtnosa is a gram-negative pathogenic bacillus which may cause urinary tract infections or pneumonia.
as §3

[4] = system: Pseudomonas aeruginosa (ATCC 10145); experiment: Minimum biocidal concentration, Pseudomonas aeruginosa (ATCC 10145); assay type: cell-based; settings: for MBC: Pseudomonas aeruginosa, ATCC10145, read-out: MBC Alone
From the text: as §1, §5, §4

[5] = system: Methicillin-resistant Staphylococcus aureus (ATCC 33591); experiment: Minimum inhibitory concentration by broth dilution, MRSA (ATCC 33591); assay type: cell-based; settings: substance alone, 2 days at 37° C.; for MIC: Staphylococcus aureus, 48 h
From the text: as §1, §3

[6] = system: Methicillin-resistant Staphylococcus aureus (ATCC 33591); experiment: Minimum biocidal concentration, MRSA (ATCC 33591); assay type: cell-based; settings: substance alone, >99.9 percent decrease of inoculum; for MBC: Staphylococcus aureus
From the text: as §1, §4

[7] = occurring in foods, routinely consumed in the diet; in words; cited from earlier work
[8] = in words; cited from earlier work
[9] = system: gram-negative and gram-positive organisms; settings: in words, cited from earlier work
[10] = system: aminoglycoside-inactivating enzymes; settings: in words; cited from earlier work
[11] = read-out: MIC Alone, MRSA ATCC 33591
[12] = read-out: MBC Alone, MRSA ATCC 33591
[13] = MRSA ATCC 33591, read-out: MIC Alone
[14] = MRSA ATCC 33591, read-out: MBC Alone
[15] = E. coli ATCC 10536, substance alone, 2 days at 37° C.

## CCCC=CC=O [2-Hexenal, 2-hexenal]
[1]
  MIC: 200 µg/mL (≈ 2.04 mM)
[2]; ATCC10536, read-out: MBC Alone
  MBC: 200 µg/mL (≈ 2.04 mM)
[3]
  MIC: 200 µg/mL (≈ 2.04 mM)
[4]
  MBC: 200 µg/mL (≈ 2.04 mM)
[5]; MRSA ATCC 33591
  MIC Alone: 200 µg/mL (≈ 2.04 mM)
[5]; [11]
  MIC: 400 µg/mL (≈ 4.08 mM)
[6]; MRSA ATCC 33591
  MBC Alone: 400 µg/mL (≈ 4.08 mM)
[6]; [12]
  MBC: 800 µg/mL (≈ 8.15 mM)
[7]
  toxicity of potentiators: routinely consumed in the diet without apparent harm

## NCC[C@H](O)C(=O)N[C@@H]1C[C@H](N)[C@@H](O[C@H]2O[C@H](CN)[C@@H](O)[C@H](O)[C@H]2O)[C@H](O)[C@H]1O[C@H]1O[C@H](CO)[C@@H](O)[C@H](N)[C@H]1O [Amikacin]
[5]; [13]
  MIC: 200 µg/mL (≈ 0.342 mM)
[6]; [14]
  MBC: 200 µg/mL (≈ 0.342 mM)
[8]
  side effects: strong side effects, such as nephrotoxicity, ototoxicity, or neuromuscular blockade
[9]
  antibacterial activity in vitro: broad range of activity against gram-negative and gram-positive organisms
[10]
  degradation by aminoglycoside-inactivating enzymes: resists degradation by most aminoglycoside-inactivating enzymes

## CC=Cc1ccc(OC)cc1 [Anethole, anethole]
[1]; [15]
  MIC: 400 µg/mL (≈ 2.7 mM)
[2]; ATCC10536, E. coli ATCC 10536, substance alone, >99.9 percent decrease of inoculum, read-out: MBC Alone
  MBC: 800 µg/mL (≈ 5.4 mM)
[5]; [13]
  MIC: > 1600 µg/mL
[6]; [14]
  MBC: > 1600 µg/mL
[7]
  toxicity of potentiators: routinely consumed in the diet without apparent harm

## c1ccc2[nH]ccc2c1 [Indole, indole]
[1]
  MIC: 800 µg/mL (≈ 6.83 mM)
[2]; ATCC10536, read-out: MBC Alone
  MBC: 800 µg/mL (≈ 6.83 mM)
[3]
  MIC: 400 µg/mL (≈ 3.41 mM)
[4]
  MBC: 800 µg/mL (≈ 6.83 mM)
[5]; [11]
  MIC: 800 µg/mL (≈ 6.83 mM)
[6]; [12]
  MBC: 1600 µg/mL (≈ 13.7 mM)
[7]
  toxicity of potentiators: routinely consumed in the diet without apparent harm

## NC[C@H]1O[C@H](O[C@H]2[C@H](O)[C@@H](O[C@H]3O[C@H](CO)[C@@H](O)[C@H](N)[C@H]3O)[C@H](N)C[C@@H]2N)[C@H](N)C[C@@H]1O [Tobramycin]
[5]; [13]
  MIC: 800 µg/mL (≈ 1.71 mM)
[6]; [14]
  MBC: 1600 µg/mL (≈ 3.42 mM)
[8]
  side effects: strong side effects, such as nephrotoxicity, ototoxicity, or neuromuscular blockade
[9]; in vitro tests
  mode of action: bactericidal and that it acts by interfering with protein synthesis in bacterial cells
[9]
  antibacterial activity in vitro: broad range of activity against gram-negative and gram-positive organisms

## Gentamicin [reference compound]
[1]; [15]
  MIC Alone: 0.78 µg/mL
[2]; E. coli ATCC 10536, substance alone, >99.9 percent decrease of inoculum
  MBC Alone: 0.78 µg/mL
[3]; P. aeruginosa ATCC 10145, substance alone, 2 days at 37° C.
  MIC Alone: 0.39 µg/mL
[4]; P. aeruginosa ATCC 10145, substance alone, >99.9 percent decrease of inoculum
  MBC Alone: 0.78 µg/mL
[5]; MRSA ATCC 33591
  MIC Alone: 1.56 µg/mL
[6]; MRSA ATCC 33591
  MBC Alone: 1.56 µg/mL
[8]
  side effects: strong side effects, such as nephrotoxicity, ototoxicity, or neuromuscular blockade
